Assay results published in patent publication US9822089B2, “R type of resveratrol dimer, preparation process therefor and purpose thereof in lowering blood sugar level” (priority 2013, dated 2017).

Legend:
[1] = system: sucrose-induced high blood sugar level of a mouse; assay: orally-administered sucrose tolerance test for normal mice; type: in vivo; settings: for Blood sugar concentration: drug 0.33 mg/ml suspension, 0.3 ml per 10 g intragastric 30 min before, x ± s, n = 10; for area under the sucrose tolerance test curve: FIG. 1, negative control group 21.0 mmol h/L; for blood glucose-lowering rate: compared with the negative control group; for lowering of sucrose-induced high blood sugar level of a mouse (in words): sucrose load
Procedure: A mean body weight of mice was 22 g to 25 g. The mice were randomly divided into 6 groups, and each group included 10 animals. Each group of animals was intragastrically administered with a drug after 12 hours of fasting.
For a normal control group, a 0.5% CMC-Na solution whose volume is equal to that of a positive control group was administered.
For a negative control group, a 0.5% CMC-Na solution whose volume is equal to that of a positive control group was administered.
For an acarbose group, a 0.33 mg/ml acarbose suspension that was prepared by using a 0.5% CMC-Na solution was administered at a dosage of 0.3 ml per 10 g of weight.
For a TVN racemate group, a 0.33 mg/ml TVN racemate suspension that was prepared by using a 0.5% CMC-Na solution was administered at a dosage of 0.3 ml per 10 g of weight.
For a (S,S)-TVN group, a 0.33 mg/ml (S,S)-TVN suspension that was prepared by using a 0.5% CMC-Na solution was administered tat a dosage of 0.3 ml per 10 g of weight.
For a (R,R)-TVN group, a 0.33 mg/ml (R,R)-TVN suspension that was prepared by using a 0.5% CMC-Na solution was administered at a dosage of 0.3 ml per 10 g of weight.
After 30 min, animals in the groups other than the normal group were intragastrically administered with a 6.7% sucrose solution at a dosage of 0.3 ml per 10 g of weight, and animals in the normal group were intragastrically administered with water whose volume is equal to that of the sucrose solution. Orbital blood sampling was separately performed at four time points, namely 0 h, 0.5 h, 1 h, and 2 h after intragastric administration of the sucrose solution to the animals. Then, 2 μL of blood serum was taken after centrifugation and added into a 96-pore plate. Thereafter, 200 μL of a reagent from a glucose assay kit was further added thereinto and a 505 nm micro-plate reader was used to measure a value of absorbance. A blood sugar concentration was obtained from a standard curve. Refer to the table below:
All data was represented by using a mean value±a standard deviation (x±s). SPSS11.5 software was used for analysis, and data comparison was performed by means of a one-way analysis of variance. P<0.05 represents that there was a significant difference; and P<0.01 represents that there was an extremely significant difference.

alpha-glucosidase = settings: in vitro; multiple of the activity of acarbose; cited from earlier work
[2] = 0.5 h after intragastric sucrose

SMILES	Blood sugar concentration ([1]; 0 h after intragastric sucrose)	Blood sugar concentration [1, 2]	Blood sugar concentration ([1]; 1 h after intragastric sucrose)	Blood sugar concentration ([1]; 2 h after intragastric sucrose)	area under the sucrose tolerance test curve [1]	blood glucose-lowering rate ([1]; at 0.5 h)	blood glucose-lowering rate ([1]; at 1 h)	lowering of sucrose-induced high blood sugar level of a mouse (in words) [1]	alpha-glucosidase inhibitory activity relative to acarbose (alpha-glucosidase)
Oc1ccc(C2Oc3ccc(/C=C/c4cc(O)cc(O)c4)cc3C2c2cc(O)cc(O)c2)cc1 (racemic) [TVN racemate, trans-δ-viniferin]	7.75 ± 1.57 mmol/L	10.34 ± 1.75 mmol/L	9.07 ± 1.55 mmol/L	8.83 ± 1.46 mmol/L	18.3 mmol·h/L	13.98%	14.60%	has a hypoglycemic activity between hypoglycemic activities of the both	254 times
Oc1ccc([C@@H]2Oc3ccc(/C=C/c4cc(O)cc(O)c4)cc3[C@H]2c2cc(O)cc(O)c2)cc1 [(R,R)-TVN, (7R,8R)-trans-δ-viniferin]	–	–	–	–	16.7 mmol·h/L	30.20%	22.79%	can significantly lower a sucrose-induced high blood sugar level of a mouse, and has a better effect than the TVN racemate	–
Oc1ccc([C@H]2Oc3ccc(/C=C/c4cc(O)cc(O)c4)cc3[C@@H]2c2cc(O)cc(O)c2)cc1 [(S,S)-TVN, (7S,8S)-trans-δ-viniferin]	–	–	–	–	20.9 mmol·h/L	0.08%	3.01%	cannot significantly lower a sucrose-induced high blood sugar level of a mouse	–
C[C@H]1O[C@H](O[C@H]2[C@H](O)[C@@H](O)[C@@H](O[C@H]3[C@H](O)[C@@H](O)C(O)O[C@@H]3CO)O[C@@H]2CO)[C@H](O)[C@@H](O)[C@@H]1N[C@H]1C=C(CO)[C@@H](O)[C@H](O)[C@H]1O (some centres unmarked) [Acarbose, acarbose]	7.94 ± 1.25 mmol/L	9.74 ± 1.45 mmol/L	8.32 ± 1.50 mmol/L	8.54 ± 1.04 mmol/L	–	18.97%	21.66%	–	–
